{"source": "patent US12551481B2", "about": "“Molecular targets for addiction” (The Jackson Laboratory, priority 2019, dated 2026)", "tested_on": "Htr1d expression", "assay": "Htr1d expression in founder strains of CC/DO mice after repeated exposure to cocaine or sham (saline)", "assay_type": "in vivo, mouse", "conditions": "CAST/EiJ males and 129S1/SvlmJ males; repeated exposure over days", "excerpt": "Identification of a target for addiction treatment was undertaken using Diversity Outbred (DO) stock of mice and the eight founding inbred strains used to generate the DO stock, which are a genetically diverse collect of mice used to validate […] trait loci (QTLs) linked to disease susceptibility, drug resistance, or behavioral phenotypes (see, e.g., Saul et al., 2019, Trends in Genetics (PMID: 31133439)). DO mice were developed by random outcross mating of 160 incipient Collaborative Cross recombinant inbred mouse lines, which were created by crossing eight unique and genetically diverse inbred mouse strains. […] Upregulation after cocaine exposure was also observed in PWK/PhJ males."}
{"smiles": "COC(=O)[C@H]1[C@@H](OC(=O)c2ccccc2)C[C@@H]2CC[C@H]1N2C", "note": "[cocaine]", "values": [{"measurement": "Htr1d expression differences, cocaine compared to sham", "value": 2, "unit": "fold"}]}
